From PMC2945764, “Carboxypeptidase A6 in Zebrafish Development and Implications for VIth Cranial Nerve Pathfinding” (PLoS ONE, 2010)

Target: T1, zebrafish CPA6 (zCPA6) (Danio rerio, UniProt E7F2H8)
T1 construct: full-length cDNA in pcDNA3.1, untagged, expressed in HEK293T cells; mature 65 kDa with EGFP
T1 sequence (E7F2H8 133-442): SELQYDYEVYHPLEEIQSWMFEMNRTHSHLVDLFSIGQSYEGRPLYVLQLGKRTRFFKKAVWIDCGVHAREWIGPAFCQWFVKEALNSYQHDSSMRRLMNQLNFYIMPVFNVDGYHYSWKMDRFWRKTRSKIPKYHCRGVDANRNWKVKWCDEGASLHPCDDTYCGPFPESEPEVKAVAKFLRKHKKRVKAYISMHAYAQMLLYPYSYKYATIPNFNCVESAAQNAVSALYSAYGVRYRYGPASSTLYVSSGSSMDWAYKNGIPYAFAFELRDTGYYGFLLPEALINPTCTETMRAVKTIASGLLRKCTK
Experiment: decrease in absorbance at […] nm, ECM-bound enzyme of transfected HEK293T cells against untransfected wells
Assay type: biochemical
Conditions: 0.5 mM substrate, 50 mM Tris-HCl pH 7.5, 150 mM NaCl, 37 °C; untagged enzyme

SMILES | decrease in absorbance at 336 nm, ECM-bound enzyme of transfected HEK293T cells
O=C(C=Cc1ccco1)N[C@@H](Cc1ccccc1)C(=O)N[C@@H](Cc1ccccc1)C(=O)O [fa-FF] | fa-FF and fa–RL were most rapidly cleaved
CC(C)C[C@H](NC(=O)[C@H](CCCNC(=N)N)NC(=O)C=Cc1ccco1)C(=O)O [fa-RL, fa–RL] | fa-FF and fa–RL were most rapidly cleaved
